# Source: patent US20100092534A1, “Combination Local Delivery Using a Stent” (Medtronic Vascular, Inc., priority 2008, published 2010)
# Key:
# [1] = system: monocyte chemoattractant protein-1 (MCP-1); experiment: Relative gene expression of MCP-1 (mRNA) in stented porcine vessels; format: in vivo; conditions: local delivery from a vascular stent; 7 days after stenting; compared to a bare metal stent; measured on mRNA; FIG. 1A
# Source text: FIG. 1: Relative gene expression of (A) MCP-1 and (B) TF in porcine vessels that were stented with zotarolimus coated stents compared with uncoated stents and stents coated with fluocinolone. The drug doses are indicated in ug/mm^2. FIG. 2: Relative gene expression of MCP-1 in porcine vessels that were stented with stents coated with zotarolimus alone compared to stents coated with zotarolimus combined with fluocinolone or fluocinolone alone. The drug doses are indicated in ug/mm^2. […] Furthermore, following stent placement, MCP-1 levels in plasma increase after several days and are more likely to be elevated at follow-up 6 months later in patients who have restenosis. In one embodiment, a dose titration experiment can be conducted to determine the optimal dosage for combination of zotarolimus (e.g. anti-proliferative drug) and fluocinolone (e.g. anti-inflammatory drug). At an optimal dose zotarolimus can inhibit neointimal hyperplasia via inhibition of smooth muscle cells proliferation, while maintaining low levels of MCP-1 and TF due to the inhibitory effect of fluocinolone. […] The stented vessels can be excised 7 days post stenting and the expression of TF and MCP-1 can be evaluated via real time-PCR using porcine primers and probes, allowing the quantative measurement at transcriptional level.
# tissue factor (TF) = experiment: Relative gene expression of TF in stented porcine vessels; format: in vivo; conditions: local delivery from a vascular stent; several days after stenting; FIG. 1B
# Source text: FIG. 1: Relative gene expression of (A) MCP-1 and (B) TF in porcine vessels that were stented with zotarolimus coated stents compared with uncoated stents and stents coated with fluocinolone. The drug doses are indicated in ug/mm^2. As such, delivery of zotarolimus locally from a vascular stent increases the expression of TF in stented vessels. The increased expression can be seen several days after the stenting procedure was preformed (FIG. 1B). In one embodiment, a dose titration experiment can be conducted to determine the optimal dosage for combination of zotarolimus (e.g. anti-proliferative drug) and fluocinolone (e.g. anti-inflammatory drug). At an optimal dose zotarolimus can inhibit neointimal hyperplasia via inhibition of smooth muscle cells proliferation, while maintaining low levels of MCP-1 and TF due to the inhibitory effect of fluocinolone. The evaluation of MCP-1 and TF can be performed by conducting pre-clinical, porcine study using stents loaded with escalating doses of at least zotarolimus or in combination with escalating dosages of fluocinolone and evaluating the expression of MCP-1 and TF in the vessels stented with these stents. […] The stented vessels can be excised 7 days post stenting and the expression of TF and MCP-1 can be evaluated via real time-PCR using porcine primers and probes, allowing the quantative measurement at transcriptional level.
# [2] = Solubility in ethanol (coating solvent); format: physicochemical
# Source text: In the following Example, ethanol is chosen as the solvent of choice. The coating to be applied to the stent is a bioactive agent combination, consisting of a mTOR inhibitor and a glucocorticoid. The mTOR inhibitor is zotarolimus. The glucocorticoid is fluocinolone. […] Persons having ordinary skill in the art of polymer chemistry can easily pair the appropriate solvent system to the polymer-bioactive agent(s) combination and achieve optimum results with no more than routine experimentation.
solubility in ethanol [2],Compound,expression of monocyte chemoattractant protein-1 (MCP-1) in stented vessels [1],expression of TF in stented vessels (tissue factor (TF))
freely soluble,CO[C@H]1C[C@@H]2CC[C@@H](C)[C@@](O)(O2)C(=O)C(=O)N2CCCC[C@H]2C(=O)O[C@H]([C@H](C)C[C@@H]2CC[C@H](n3cnnn3)[C@H](OC)C2)CC(=O)[C@H](C)/C=C(\C)[C@@H](O)[C@@H](OC)C(=O)[C@H](C)C[C@H](C)/C=C/C=C/C=C/1C [zotarolimus],increased,increases
freely soluble,CC1(C)O[C@@H]2C[C@H]3[C@@H]4C[C@H](F)C5=CC(=O)C=C[C@]5(C)[C@@]4(F)[C@@H](O)C[C@]3(C)[C@]2(C(=O)CO)O1 [fluocinolone],,
